Each structure is given as a SMILES string. Like-named read-outs stand apart in the source and are kept apart here. A value given as a limit tells only on which side of the number the result lay.

What all share (assay type): cell-based
In one assay the target is T1, hGCGR (Homo sapiens, UniProt P47871).
T1 construct: expressed in transfected cells
In words: Functional cAMP formation (HTRF) in HEK-293 clonal cells expressing hGCGR, 0.1% bovine casein, without or with 1.0% human serum albumin. To be noted: geometric mean. In a few lines: (§1)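 Readings of the HTRF 665/620 nm ratio, which falls as cAMP rises, were converted to nM cAMP using a standard curve after 30 min peptide exposure at 37° C.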
For orientation: Changes in cAMP serve as a functional read-out for many G protein-coupled receptors.

A further assay has as its target T2, hGIPR (Homo sapiens, UniProt P48546).
T2 construct: expressed in transfected cells
T2 sequence (P48546 22-466): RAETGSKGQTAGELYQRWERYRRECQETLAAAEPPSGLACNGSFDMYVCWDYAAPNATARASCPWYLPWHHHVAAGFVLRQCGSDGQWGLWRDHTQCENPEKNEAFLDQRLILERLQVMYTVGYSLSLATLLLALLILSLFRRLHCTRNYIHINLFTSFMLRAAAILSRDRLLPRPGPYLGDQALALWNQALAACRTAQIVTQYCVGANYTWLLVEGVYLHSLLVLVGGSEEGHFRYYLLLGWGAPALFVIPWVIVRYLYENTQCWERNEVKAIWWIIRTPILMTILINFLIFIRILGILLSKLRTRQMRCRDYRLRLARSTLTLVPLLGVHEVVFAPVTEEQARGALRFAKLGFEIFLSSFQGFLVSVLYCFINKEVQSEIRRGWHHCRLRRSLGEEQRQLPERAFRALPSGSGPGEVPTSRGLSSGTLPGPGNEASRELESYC
In words: Functional cAMP formation (HTRF) in HEK-293 clonal cells expressing hGIPR, 0.1% bovine casein, without or with 1.0% human serum albumin. To be noted: for EC50: geometric mean; for Emax: read-out: hGIPR Emax, % ± SEM. In a few lines: as §1

Another assay concerns the target hGLP-1R (Homo sapiens, UniProt P43220). The experiment in a line: Functional cAMP formation (HTRF) in HEK-293 clonal cells expressing hGLP-1R, 0.1% bovine casein, without or with 1.0% human serum albumin. More on the design: expressed in transfected cells. Particulars: for EC50: geometric mean, read-out: hGLP-1R EC50, nM (SEM, n); for Emax: 0.1% bovine casein, arithmetic mean. In a few lines:
as §1

[1] abbreviates: 0.1% bovine casein and 1.0% human serum albumin, 37° C., read-out: hGCGR EC50, nM (SEM, n).
[2] abbreviates: cAMP, incubated at 37° C., 0.1% bovine casein (no human serum albumin), read-out: hGCGR EC50, nM (SEM, n).
The mark [3] stands for this setting: 0.1% bovine casein and 1.0% human serum albumin, 37° C., read-out: hGIPR EC50, nM (SEM, n).
[4] abbreviates: HEK293, 0.1% bovine casein and 1.0% human serum albumin, 37° C., percent of maximal response to GIP(1-42)NH2.
[5] abbreviates: HEK293, percent of maximal response to GIP(1-42)NH2, 37° C., 0.1% bovine casein, arithmetic mean.
The mark [6] stands for this setting: 0.1% bovine casein and 1.0% human serum albumin, 37° C.
The mark [7] stands for this setting: HEK293, percent of maximal response to GLP-1(7-36)NH2, 37° C., read-out: hGLP-1R Emax, % ± SEM.
[8] abbreviates: cAMP, incubated at 37° C., 0.1% bovine casein (no human serum albumin).
Where [9] appears, read: cAMP, incubated at 37° C., 0.1% bovine casein (no human serum albumin), read-out: hGIPR EC50, nM (SEM, n).

Sequence of hGLP-1R (P43220 24-463): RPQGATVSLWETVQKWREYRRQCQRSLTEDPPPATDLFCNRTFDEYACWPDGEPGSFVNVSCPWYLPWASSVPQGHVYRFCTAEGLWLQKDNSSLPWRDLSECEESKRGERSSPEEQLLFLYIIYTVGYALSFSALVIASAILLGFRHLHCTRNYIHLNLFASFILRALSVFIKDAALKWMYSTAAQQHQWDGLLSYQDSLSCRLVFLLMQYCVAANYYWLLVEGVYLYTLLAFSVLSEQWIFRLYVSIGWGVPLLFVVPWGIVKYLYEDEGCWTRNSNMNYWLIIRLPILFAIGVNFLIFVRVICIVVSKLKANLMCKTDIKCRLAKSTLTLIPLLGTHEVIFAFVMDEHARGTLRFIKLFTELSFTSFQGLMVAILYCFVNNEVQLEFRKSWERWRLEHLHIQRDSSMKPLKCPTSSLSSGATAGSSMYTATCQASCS
T1 sequence (P47871 26-477): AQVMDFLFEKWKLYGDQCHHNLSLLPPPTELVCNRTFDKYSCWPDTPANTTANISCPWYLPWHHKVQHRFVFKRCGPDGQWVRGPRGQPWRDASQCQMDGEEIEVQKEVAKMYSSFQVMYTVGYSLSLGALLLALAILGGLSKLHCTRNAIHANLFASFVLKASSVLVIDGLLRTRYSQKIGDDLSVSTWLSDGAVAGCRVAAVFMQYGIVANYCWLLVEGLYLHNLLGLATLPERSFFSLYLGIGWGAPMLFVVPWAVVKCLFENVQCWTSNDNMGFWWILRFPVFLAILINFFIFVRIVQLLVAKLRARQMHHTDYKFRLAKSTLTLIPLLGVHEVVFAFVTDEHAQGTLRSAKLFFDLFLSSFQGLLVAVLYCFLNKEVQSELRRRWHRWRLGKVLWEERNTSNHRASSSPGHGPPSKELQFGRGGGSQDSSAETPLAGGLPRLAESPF

Regarding `CC[C@H](C)[C@H](NC(=O)[C@H](CC(C)C)NC(=O)[C@H](CCCCNC(=O)COCCOCCNC(=O)COCCOCCNC(=O)CC[C@H](NC(=O)CCCc1ccc(C(C)(C)C)cc1)C(=O)O)NC(=O)[C@@H](CCC(=O)O)NC(=O)[C@@H](NC(=O)[C@H](Cc1ccccc1)NC(=O)[C@H](CCC(=O)O)NC(=O)C(C)(C)NC(=O)[C@H](CCC(N)=O)NC(=O)[C@H](C)NC(=O)[C@H](CCCCNC(=O)COCCOCCNC(=O)COCCOCCNC(=O)CC[C@H](NC(=O)CCCc1ccc(C(C)(C)C)cc1)C(=O)O)NC(=O)[C@H](CCCN)NC(=O)[C@H](CC(=O)O)NC(=O)[C@H](CC(C)C)NC(=O)[C@](C)(CC(C)C)NC(=O)[C@@H](NC(=O)[C@H](CO)NC(=O)[C@H](Cc1ccncc1)NC(=O)[C@H](CC(=O)O)NC(=O)[C@H](CO)NC(=O)[C@@H](NC(=O)[C@](C)(Cc1ccccc1F)NC(=O)[C@@H](NC(=O)CNC(=O)[C@H](CCC(=O)O)NC(=O)C(C)(C)NC(=O)[C@@H](N)Cc1ccc(O)cc1)[C@@H](C)O)[C@@H](C)O)[C@@H](C)CC)[C@@H](C)CC)C(=O)N[C@@H](CCC(=O)O)C(=O)NCC(=O)NCC(=O)N1CCC[C@H]1C(=O)N[C@@H](CO)C(=O)N[C@@H](CO)C(=O)NCC(=O)N[C@@H](C)C(=O)N1CCC[C@H]1C(=O)N1CCC[C@H]1C(=O)N1CCC[C@H]1C(=O)N[C@@H](CO)C(N)=O` [Example 67], the EC50 (commonly the concentration giving half of the maximal effect) on hGCGR (setting [1]) was greater than 9950 nM; at hGCGR (setting [2]), greater than 9950 nM; on hGIPR (setting [3]) it was 0.0417 nM; at hGLP-1R (setting [6]) it was 12 nM; on hGLP-1R (setting [8]) it was 2.63 nM. The figures for the maximal response (Emax) at hGIPR (setting [4]), on hGIPR (setting [5]) and on hGLP-1R (setting [7]) were 91.9%, 95% and 91.7%, respectively.
As for `CC[C@H](C)[C@H](NC(=O)[C@H](CC(C)C)NC(=O)[C@](C)(Cc1ccc(O)cc1)NC(=O)[C@@H](CCC(=O)O)NC(=O)[C@@H](NC(=O)[C@H](Cc1ccccc1)NC(=O)[C@H](CCC(=O)O)NC(=O)C(C)(C)NC(=O)[C@H](CCC(N)=O)NC(=O)[C@H](C)NC(=O)[C@H](CCCCNC(=O)COCCOCCNC(=O)COCCOCCNC(=O)CC[C@H](NC(=O)CCCc1ccc(C(C)(C)C)cc1)C(=O)O)NC(=O)[C@H](CCCN)NC(=O)[C@H](CC(=O)O)NC(=O)[C@H](CC(C)C)NC(=O)[C@](C)(CC(C)C)NC(=O)[C@@H](NC(=O)[C@H](CO)NC(=O)[C@H](Cc1ccncc1)NC(=O)[C@H](CC(=O)O)NC(=O)[C@H](CO)NC(=O)[C@@H](NC(=O)[C@](C)(Cc1ccccc1F)NC(=O)[C@@H](NC(=O)CNC(=O)[C@H](CCC(=O)O)NC(=O)C(C)(C)NC(=O)[C@@H](N)Cc1ccc(O)cc1)[C@@H](C)O)[C@@H](C)O)[C@@H](C)CC)[C@@H](C)CC)C(=O)N[C@@H](CCC(=O)O)C(=O)NCC(=O)NCC(=O)N1CCC[C@H]1C(=O)N[C@@H](CO)C(=O)N[C@@H](CO)C(=O)NCC(=O)N[C@@H](C)C(=O)N1CCC[C@H]1C(=O)N1CCC[C@H]1C(=O)N1CCC[C@H]1C(=O)N[C@@H](CO)C(=O)N[C@@H](CCCCNC(=O)COCCOCCNC(=O)COCCOCCNC(=O)CC[C@H](NC(=O)CCCc1ccc(C(C)(C)C)cc1)C(=O)O)C(N)=O` [Example 135], the EC50 was greater than 9950 nM at hGCGR (setting [1]); greater than 9950 nM at hGCGR (setting [2]); 0.0609 nM on hGIPR (setting [3]); 0.0184 nM on hGIPR (setting [9]); 0.936 nM at hGLP-1R (setting [6]); 0.271 nM at hGLP-1R (setting [8]). Further, the Emax (as a rule, the greatest response seen or fitted, relative to the assay's reference) at hGIPR (setting [4]) was determined as 91.2 ± 4.78%; at hGIPR (setting [5]), 92.3 ± 2.64%.
With `CC[C@H](C)[C@H](NC(=O)[C@H](CC(C)C)NC(=O)[C@](C)(Cc1ccccc1)NC(=O)[C@H](CCCCNC(=O)COCCOCCNC(=O)COCCOCCNC(=O)CC[C@H](NC(=O)CCCCCCCCCCCCC(=O)O)C(=O)O)NC(=O)[C@@H](NC(=O)[C@](C)(Cc1ccccc1)NC(=O)[C@H](CCC(=O)O)NC(=O)C(C)(C)NC(=O)[C@H](CCC(N)=O)NC(=O)[C@H](C)NC(=O)[C@H](CCCCNC(=O)COCCOCCNC(=O)COCCOCCNC(=O)CC[C@H](NC(=O)CCCCCCCCCCCCC(=O)O)C(=O)O)NC(=O)[C@H](CCCN)NC(=O)[C@H](CC(=O)O)NC(=O)[C@H](CC(C)C)NC(=O)[C@](C)(CC(C)C)NC(=O)[C@@H](NC(=O)[C@H](CO)NC(=O)[C@@H](NC(=O)[C@H](CC(=O)O)NC(=O)[C@H](CO)NC(=O)[C@@H](NC(=O)[C@](C)(Cc1ccccc1F)NC(=O)[C@@H](NC(=O)CNC(=O)[C@H](CCC(=O)O)NC(=O)C(C)(C)NC(=O)[C@@H](N)Cc1ccc(O)cc1)[C@@H](C)O)[C@@H](C)O)C(C)C)[C@@H](C)CC)[C@@H](C)CC)C(=O)N[C@@H](CCC(=O)O)C(=O)NCC(=O)NCC(=O)N1CCC[C@H]1C(=O)N[C@@H](CO)C(=O)N[C@@H](CO)C(=O)NCC(=O)N[C@@H](C)C(=O)N1CCC[C@H]1C(=O)N1CCC[C@H]1C(=O)N1CCC[C@H]1C(=O)N[C@@H](CO)C(N)=O` [Example 122], the concentration for a half-maximal effect (EC50) on hGCGR (hGCGR EC50, nM (SEM, n), cAMP, incubated at 37° C., 0.1% bovine casein (no human serum albumin)) is greater than 9950 nM; on hGIPR (hGIPR EC50, nM (SEM, n), cAMP, incubated at 37° C., 0.1% bovine casein (no human serum albumin)), 0.064 nM. The maximal effect (Emax) on hGLP-1R (HEK293, read-out: hGLP-1R Emax, % ± SEM, percent of maximal response to GLP-1(7-36)NH2, 37° C.) came out at 94.3%.
As for `CCCCCCCCCCCC(=O)N[C@@H](CCC(=O)NCCOCCOCC(=O)NCCOCCOCC(=O)NCCCC[C@H](NC(=O)CNC(=O)CNC(=O)[C@H](CCC(=O)O)NC(=O)[C@@H](NC(=O)[C@H](CC(C)C)NC(=O)[C@](C)(Cc1ccc(O)cc1)NC(=O)[C@@H](CCC(=O)O)NC(=O)[C@@H](NC(=O)[C@H](Cc1ccccc1)NC(=O)[C@H](CCC(=O)O)NC(=O)C(C)(C)NC(=O)[C@H](CCC(N)=O)NC(=O)[C@H](C)NC(=O)[C@H](CCCCNC(=O)COCCOCCNC(=O)COCCOCCNC(=O)CC[C@H](NC(=O)CCCCCCCCCCC)C(=O)O)NC(=O)[C@H](CCCN)NC(=O)[C@H](CC(=O)O)NC(=O)[C@H](CC(C)C)NC(=O)[C@](C)(CC(C)C)NC(=O)[C@@H](NC(=O)C(C)(C)NC(=O)[C@@H](NC(=O)[C@H](CC(=O)O)NC(=O)[C@H](CO)NC(=O)[C@@H](NC(=O)[C@](C)(Cc1ccccc1)NC(=O)[C@@H](NC(=O)CNC(=O)[C@H](CCC(=O)O)NC(=O)C(C)(C)NC(=O)[C@@H](N)Cc1ccc(O)cc1)[C@@H](C)O)[C@@H](C)O)C(C)C)[C@@H](C)CC)[C@@H](C)CC)[C@@H](C)CC)C(=O)N[C@@H](CO)C(=O)N[C@@H](CO)C(=O)NCC(=O)N[C@@H](C)C(=O)N1CCC[C@H]1C(=O)N1CCC[C@H]1C(=O)N1CCC[C@H]1C(=O)N[C@@H](CO)C(N)=O)C(=O)O` [Example 176], the 50% effective concentration (EC50) is greater than 9950 nM at hGCGR (setting [2]) and 0.0485 nM at hGIPR (setting [9]). The maximal effect (Emax) amounted to 89.3% at hGIPR (setting [5]) and 98.9% on hGLP-1R (setting [7]).

These data come from patent US20230265151A1, “GIP/GLP1 CO-AGONIST COMPOUNDS” (priority 2020, published 2023).
